In publication PMC11327196, “A phase 1 study to assess the absolute bioavailability, mass balance, pharmacokinetics, metabolism, and excretion of [^14C]-mobocertinib, an oral inhibitor of EGFR exon 20 insertion mutations, in healthy participants” (Investigational New Drugs, 2024):

Test: Period 1: excretion in urine and feces after IV [14C]-mobocertinib
Format: in vivo, human
Settings: Period 1, IV infusion 50 µg (~2 µCi) [14C]-mobocertinib
Method: On Day 1 of Period 1, following an overnight fast of at least 10 h, participants received a single 160 mg dose of non-radiolabeled mobocertinib as capsules. At 3.75 h post oral dosing (i.e., 15 min before the median oral tmax of ~ 4 h), participants received a nominal dose of 50 µg (~ 2 µCi) [^14C]-mobocertinib as a 15-minute IV infusion. However, due to nonspecific binding of [^14C]-mobocertinib to the dosing syringe and tubing, actual doses administered ranged from 36.8 to 38.7 µg (1.47 to 1.55 µCi). Participants were required to stay in the clinic from Day − 1 through at least the 96-hour blood draw (Day 5) or until a discharge criterion was met (i.e., ≥ 80% of the total administered radioactive dose was recovered in urine and fecal samples or excretion of radioactivity in urine and feces combined had declined to ≤ 1% of the total administered dose per day for ≥ 2 consecutive intervals), up to a maximum of 7 days postdose (Day 8). Blood samples for the measurement of plasma mobocertinib, AP32960, and AP32914 concentrations were collected predose and at 0.5, 1, 2, 3, 4, 5, 6, 8, 12, 24, 36, 48, 72, and 96 h after oral administration. Additional blood samples to determine [^14C]-total radioactivity, [^14C]-mobocertinib, [^14C]-AP32960, and [^14C]-AP32914 in plasma were collected at 3.75 h after oral dosing (i.e., predose for [^14C] assessments), at the end of the IV infusion, and at 10, 20, and 30 min, and 1, 2, 4, 8, 20, 32, 44, 68, and 92 h after the end of infusion. […]
Plasma, whole blood, and urine samples were assayed for mobocertinib, AP32960, and AP32914 concentrations using liquid chromatography-tandem mass spectrometry (Q2 Solutions, Ithaca, New York, USA). […] Urine and fecal samples were assayed for total radioactivity following the IV dose of [^14C]-mobocertinib in Period 1, and whole blood, plasma, urine, and fecal samples were assayed for total radioactivity following the oral dose of [^14C]-mobocertinib in Period 2 using liquid scintillation counting (LSC; Celerion, Lincoln, Nebraska, USA; LLOQs: Period 1 urine: 0.115–0.118 ng eq/g, feces: 0.720–0.759 ng eq/g; Period 2 whole blood: 87.3–112 ng eq/g, plasma: 116–132 ng eq/mL, urine: 37.8–46.8 ng eq/g, feces: 110–336 ng eq/g across participants). Urine and fecal samples collected in Period 1 that had total radioactivity concentration equivalents below the LLOQ of the Celerion LSC assay were sent to Pharmaron for measurement by AMS (LLOQ: urine: 0.0000253–0.00111 ng eq/g; feces: 0.000404–0.0278 ng eq/g across participants). […]

- administered radioactive dose excreted in urine as analyte: 1.5%
- dose recovered as total radioactivity in feces overall: 69.9%
- dose recovered as total radioactivity in urine overall: 4.7%
- radioactive dose excreted in feces as analyte: 2.5%
Substance: [^14C]-mobocertinib
